Data: patent publication US10293053B2, “Silanol based therapeutic payloads” (BlinkBio, Inc., priority 2016, dated 2019)
Like-named read-outs stand apart in the source and are kept apart here. Where a SMILES comes first, the peptide text is derived from it. [ ]: non-standard residue; d: D form. The star is where a group is joined. Dolaproine = CO[C@@H]([C@@H]1CCCN1)[C@@H](C)C(=O)O; Dil = CC[C@H](C)[C@H](NC)[C@@H](CC(=O)O)OC; NMe2Val = CC(C)[C@@H](C(=O)*)N(C)C; NMeV = CN[C@H](C(=O)O)C(C)C; X3 = C[Si](C)(O)CCCC(=O)*; X2 = C[Si](C)(O)CCCN*

Columns and labels:
KB cells [1] = experiment: CellTiter-Glo cell viability, 72 hour incubation protocol; assay type: cell-based; details: Homo sapiens
Method: 72 hour incubation protocol: The CellTiter-Glo (CTG) assay (Promega) was used to measure cell viability in various different cell lines included KB cells obtained from American Type Culture Collection (ATCC). […] For this assay, 5,000 cells per well were plated in a 96-well tissue culture treated plate in RPMI 1640 medium (ThermoFisher Scientific) containing 5% FBS. Cells were allowed to settle at 37° C. in a humidified CO2 incubator for 24 hours. Cells were dosed with compound or vehicle control in duplicate for 72 hours at 37° C. in a humidified CO2 incubator. After the 72 hour dosing period, the CTG assay was performed according to the manufacturer's specifications. Luminescence was read using a Victor X5 (PerkinElmer) plate reader. Data was analyzed using Prism software and was normalized to the vehicle control.

KB cells [2] = experiment: Cell titer-glo cell viability, washout protocol; assay type: cell-based; details: percent cell kill at 48 h
Method: Washout protocol: KB cells in culture were seeded in white clear bottom 96-well tissue culture plate at a density of 5,000 cells per well in a folate free RPMI media with 10% FBS a day prior to compound addition. Cells were counted visually with a hemocytometer and diluted accordingly to obtain the desired density. Cells were allowed to incubate for 24 hours in a humidified CO2 atmosphere in an incubator at 37° C. The spent media was aspirated and replenished with 100 μL of fresh media containing a 3-fold serial dilution of compound with concentrations ranging from 0.3 to 2000 nM and with a final DMSO concentration of 0.1%. Blank wells without compound were also treated with media containing 0.1% DMSO. Cells were incubated for 2 h and washed 4 times with fresh media. […] […] 100 μL of constituted Cell titer-glo reagent was added to each well and luminescence was recorded with a VICTOR plate reader according to manufacturers' protocol.

[3] = 72 h incubation protocol, silanol based payloads, read-out: EC50

`CC[C@H](C)[C@@H]([C@@H](CC(=O)N1CCC[C@H]1[C@H](OC)[C@@H](C)C(=O)N[C@@H](Cc1ccccc1)C(=O)O)OC)N(C)C(=O)[C@@H](NC(=O)[C@H](C(C)C)N(C)C(=O)CCC[Si](C)(C)O)C(C)C` [Example 6, ((2R,3R)-3-((S)-1-((3R,4S,5S)-4-((S)-2-((S)-2-(4-(hydroxydimethylsilyl)-N-methylbutanamido)-3-methylbutanamido)-N,3-dimethylbutanamido)-3-methoxy-5-methylheptanoyl)pyrrolidin-2-yl)-3-methoxy-2-methylpropanoyl)-L-phenylalanine] (X3-[NMeV]V[Dil][Dolaproine]F-OH) was tested, and the EC50 (KB cells [1]; 72 h) was about 500 nM.

With `CC[C@]1(O)C[C@@H]2CN(CCc3c([nH]c4ccccc34)[C@@](C(=O)OC)(c3cc4c(cc3OC)N(C)[C@H]3[C@@](O)(C(=O)NCCC[Si](C)(C)O[Si](C)(C)CSc5ncc(Cn6cc(C[C@H](NC(=O)[C@H](CC(=O)O)NC(=O)[C@H](CC(=O)O)NC(=O)[C@H](CCCNC(=N)N)NC(=O)[C@H](CC(=O)O)NC(=O)CC[C@H](NC(=O)c7ccc(NCc8cnc9nc(N)[nH]c(=O)c9n8)cc7)C(=O)O)C(=O)O)nn6)cn5)[C@H](O)[C@]5(CC)C=CCN6CC[C@]43[C@@H]65)C2)C1` [Example 28] the “% Kill (48 h)” value (KB cells [2]) was 86%.

`CC[C@@]1(O)C(=O)OCc2c1cc1n(c2=O)Cc2c-1nc1ccccc1c2CC[Si](C)(C)O` [Example 7, (S)-4-Ethyl-4-hydroxy-11-(2-(hydroxydimethylsilyl)ethyl)-1,12-dihydro-14H-pyrano[3′,4′:6,7]indolizino[1,2-b]quinoline-3,14(4H)-dione] was tested, and the EC50 (KB cells [1]; [3]) was about 56 nM.

With `CC[C@]1(O)C[C@@H]2CN(CCc3c([nH]c4ccccc34)[C@@](C(=O)OC)(c3cc4c(cc3OC)N(C)[C@H]3[C@@](O)(C(=O)NCCC[Si](C)(C)O[Si](C)(C)CSc5ncc(Cn6cc(COCCOCCOCCOCCOCCOCCNC(=O)CC[C@H](NC(=O)c7ccc(NCc8cnc9nc(N)[nH]c(=O)c9n8)cc7)C(=O)O)nn6)cn5)[C@H](O)[C@]5(CC)C=CCN6CC[C@]43[C@@H]65)C2)C1` [Example 24] the “% Kill (48 h)” value (KB cells [2]) was 84%.

Compound `CC[C@]1(O)C[C@H]2CN(CCc3c([nH]c4ccccc34)[C@@](C(=O)OC)(c3cc4c(cc3OC)N(C)[C@H]3[C@@](O)(C(=O)NCCC[Si](C)(C)O)[C@H](O)[C@]5(CC)C=CCN6CC[C@]43[C@@H]65)C2)C1` (stereo in doubt) [Example 1, Methyl (3R,5S,7R,9S)-5-ethyl-9-((3aR,3a1R,4R,5S,5aR,10bR)-3a-ethyl-4,5-dihydroxy-5-((3-(hydroxydimethylsilyl)propyl)carbamoyl)-8-methoxy-6-methyl-3a,3a1,4,5,5a,6,11,12-octahydro-1H-indolizino[8,1-cd]carbazol-9-yl)-5-hydroxy-1,4,5,6,7,8,9,10-octahydro-2H-3,7-methano[1]azacycloundecino[5,4-b]indole-9-carboxylate] has an EC50 (KB cells [1]; [3]) of about 6 nM.

In the case of `CC[C@]1(O)CC2CN(CCc3c([nH]c4ccccc34)[C@@](C(=O)OC)(c3cc4c(cc3OC)N(C)[C@H]3[C@@](O)(C(=O)NCCC[Si](C)(C)O[Si](C)(C)CSc5ncc(COCCOCCOCCn6cc(COCC(COCc7cn(CCOCCOCCOCc8cnc(SC[Si](C)(C)O[Si](C)(C)CCCNC(=O)[C@@]9(O)[C@H](O)[C@]%10(CC)C=CCN%11CC[C@@]%12(c%13cc([C@@]%14(C(=O)OC)CC%15CN(CCc%16c%14[nH]c%14ccccc%16%14)C[C@](O)(CC)C%15)c(OC)cc%13N(C)[C@@H]9%12)[C@@H]%11%10)nc8)nn7)(COCc7cn(CCOCCOCCOCc8cnc(SC[Si](C)(C)O[Si](C)(C)CCCNC(=O)[C@@]9(O)[C@H](O)[C@]%10(CC)C=CCN%11CC[C@@]%12(c%13cc([C@@]%14(C(=O)OC)CC%15CN(CCc%16c%14[nH]c%14ccccc%16%14)C[C@](O)(CC)C%15)c(OC)cc%13N(C)[C@@H]9%12)[C@@H]%11%10)nc8)nn7)NC(=O)CCOCCOCCOCCOCCOCCOCCNC(=O)CC[C@H](NC(=O)c7ccc(NCc8cnc9nc(N)[nH]c(=O)c9n8)cc7)C(=O)O)nn6)cn5)[C@H](O)[C@]5(CC)C=CCN6CC[C@]43[C@@H]65)C2)C1` (some centres unmarked) [Example 27], the “% Kill (48 h)” value (KB cells [2]) is reported as 80%.

`CC[C@H](C)[C@@H]([C@@H](CC(=O)N1CCC[C@H]1[C@H](OC)[C@@H](C)C(=O)N[C@@H](Cc1ccccc1)C(=O)NCCC[Si](C)(C)O)OC)N(C)C(=O)[C@@H](NC(=O)[C@H](C(C)C)N(C)C)C(C)C` [Example 5, (S)—N-((3R,4S,5S)-1-((S)-2-((3R,4R,7S)-7-benzyl-13-hydroxy-4,13-dimethyl-5,8-dioxo-2-oxa-6,9-diaza-13-silatetradecan-3-yl)pyrrolidin-1-yl)-3-methoxy-5-methyl-1-oxoheptan-4-yl)-2-((S)-2-(dimethylamino)-3-methylbutanamido)-N,3-dimethylbutanamide] (NMe2Val-V[Dil][Dolaproine]F-X2) gave an EC50 (KB cells [1]; 72 h) of about 0.5 nM.

Work on `CCCC(=O)OCN(C(=O)[C@@H](NC(=O)[C@H]1CCCCN1C)[C@@H](C)CC)[C@H](C[C@@H](OC(C)=O)c1nc(C(=O)N[C@@H](Cc2ccc(O)cc2)C[C@H](C)C(=O)NCCC[Si](C)(C)O)cs1)C(C)C` (stereo in doubt) [Example 13] yielded an EC50 (KB cells [1]; 72 h) of under 0.1 nM.
